Columns and labels:
[1] = Detection of hydroxyl radicals (TPA) and hydrogen peroxide (PBSF) by fluorescence spectroscopy; format: biochemical; details: 40 μM complex or CuCl2, ascH− 1 mM, MOPS 50 mM pH 7.4, TPA 0.5 mM or PBSF 25 μM, up to 3.5 h, r.t.
Method: To similarly confirm increased DNA cleavage as a result of enhanced ROS formation when introducing β‐Ala2 in the ATCUN motif, the ^•OH and H2O2 production was monitored. To follow the evolution of these species, the oxidation of terephthalate (TPA → HO‐TPA) by ^•OH[40] and the perhydrolysis of pentafluorobenzenesulfonyl fluorescein (PBSF) into fluorescein by H2O2 [40] were analyzed by fluorescence spectroscopy. In Figure 5, the kinetics of ^•OH and H2O2 production by complexes 1 (Gly2), 3 (β‐Ala2), 4 (β‐Ala2; Lys1/4) and CuCl2 are depicted.
Figure 5 Kinetics of ^•OH (left) and H2O2 (right) production for 1, 3, 4 and CuCl2 (40 μM) in the presence of ascH^− (1 mM) in MOPS buffer (50 mM, pH 7.4) monitored by fluorescence evolution of HO‐TPA (λ ex 320 nm, λ em=428 nm) from TPA (0.5 mM), and fluorescein (λ ex=485 nm, λ em=513 nm) from PBSF (25 μM).
S-8 Detection of hydroxyl radicals and hydrogen peroxide
For the identification of generated ROS by Cu(II) ATCUN complexes during DNA cleavage, gel electrophoresis was used for a ROS quenching experiment (Figure 4). Detection of hydroxyl radicals and hydrogen peroxide generated by metallonucleases was additionally performed by fluorescence spectroscopy.
The fluorescent dyes disodium terephthalate (TPA) and pentafluorobenzenesulfonyl fluorescein (PBSF) were used for the detection of hydroxyl radicals and hydrogen peroxide, respectively. […]

HCT116 cells = experiment: Cellular uptake of Cu by ICP-MS; format: cell-based, human; details: 70 µM, 24 h, 37 °C, 5% CO2, 4 × 10^5 cells/well, HNO3 lysis, corrected for cell-free wells, n = 3
Method: We aimed to correlate the antiproliferative activity to the accumulation of Cu in HCT116 cells. Therefore, cells were treated for 24 h with complexes Cu−GGH, 1, 3, 4 and CuCl2 (70 μM), and the Cu content of the samples was determined by ICP‐MS (Table S13). […] The higher Cu contents probably lead to enhanced oxidative stress levels in cells, which consequently results in higher antiproliferative activity.
The antiproliferative activity of selected Cu(II) ATCUN complexes was investigated towards different tumor cell lines (HCT116, NCI-H460, SiHa and SW480 cells) and expressed as the IC50 values. Additionally, cellular uptake studies in HCT116 tumor cells were carried out and the amount of Cu was determined with inductively coupled plasma mass spectrometry (ICP-MS).
Table S13. […]
with 0.4% sulforhodamine B (Sigma-Aldrich) in 1% acetic acid for 30 min in the dark at room temperature and then washed with 1% acetic acid to remove unbound dye. The stain was dissolved in unbuffered Tris base (10 mM, Serva) for 30 min on a plate shaker in the dark and quantified on a BioTek EL808 microplate reader at an absorbance of 490 nm with a reference wavelength of 450 nm to determine the percentage of cell-growth inhibition by determining the absorbance of each sample relative to a negative (no inhibitor) and a no-growth control (day 0). […]

accumulated Cu in HCT116 (HCT116 cells): 0.754 ± 0.010 μg/4 × 10^5 cells
SMILES: [Cl][Cu][Cl] [CuCl2, reference compound]
catalytic ROS generation (•OH and H2O2 production, in words) [1]: highest ^•OH and H2O2 formation
